# Data taken from US20260374754A1, “N-((ISOQUINOLIN-6-YL)METHYL)-1H-PYRAZOLE-4-CARBOXAMIDE DERIVATIVES AS PLASMA KALLIKREIN INHIBITORS FOR THE TREATMENT OF HEREDITARY ANGIODEMA” (Takeda Pharmaceutical Company Limited, priority 2022, published 2026).
# Where a name gives a salt, the structure may show the parent alone.
# Molecular target: human activated kallikrein enzyme (Homo sapiens, UniProt P03952)
# Test: Inhibition of human activated plasma kallikrein, fluorogenic PFR-AMC substrate, 500 pM enzyme format
# Type: biochemical
# Conditions: 500 pM activated kallikrein; 300 μM PFR-AMC; 30 min preincubation; 10 min room temperature; pH 7.5; read-out: Primary Dose Response Assay: Average EC50
# Procedure, shortened: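 500 pM activated kallikrein preincubated 30 min at room temperature with inhibitors in pH 7.5 Tris/EDTA/NaCl buffer with PEG-400 and Triton X-100. Reaction started with 300 μM PFR-AMC, run 10 min at room temperature; AMC fluorescence read at ex 380/em 460 nm.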
# human activated kallikrein enzyme, sequence (P03952 391-638 limits assumed): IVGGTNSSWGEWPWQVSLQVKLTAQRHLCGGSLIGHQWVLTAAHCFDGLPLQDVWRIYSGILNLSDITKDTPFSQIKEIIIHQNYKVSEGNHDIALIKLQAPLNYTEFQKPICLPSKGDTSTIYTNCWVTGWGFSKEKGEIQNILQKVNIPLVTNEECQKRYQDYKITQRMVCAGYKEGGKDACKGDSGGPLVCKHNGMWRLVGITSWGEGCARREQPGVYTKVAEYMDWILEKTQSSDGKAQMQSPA
# human activated kallikrein enzyme, sequence (P03952 20-390 partner limits assumed): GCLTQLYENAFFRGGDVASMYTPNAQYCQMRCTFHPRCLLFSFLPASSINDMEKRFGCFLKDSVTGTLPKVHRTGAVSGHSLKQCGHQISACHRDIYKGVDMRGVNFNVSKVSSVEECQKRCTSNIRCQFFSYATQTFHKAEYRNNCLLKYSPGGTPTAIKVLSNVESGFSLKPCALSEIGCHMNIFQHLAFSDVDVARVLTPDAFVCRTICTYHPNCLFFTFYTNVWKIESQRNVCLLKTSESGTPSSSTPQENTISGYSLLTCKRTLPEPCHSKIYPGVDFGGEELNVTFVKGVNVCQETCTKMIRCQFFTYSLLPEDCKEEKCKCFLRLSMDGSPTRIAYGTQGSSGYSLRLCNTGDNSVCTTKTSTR
row,Structure (SMILES),EC50 [nM]
1,"Cc1cc2c(N)nccc2c(C)c1CNc1cc(NCc2ccc3c(-n4cccn4)cccc3c2)ncn1 [Example 246, N4-((5-(1H-pyrazol-1-yl)naphthalen-2-yl)methyl)-N6-((1-amino-5,7-dimethylisoquinolin-6-yl)methyl)pyrimidine-4,6-diamine]",< 1
2,"CCOC(=O)N(C)c1ccc(Cn2cc(C(=O)NCc3c(C)cc4c(N)nccc4c3C)cn2)cc1 [Example 25, ethyl (4-((4-(((1-amino-5,7-dimethylisoquinolin-6-yl)methyl)carbamoyl)-1H-pyrazol-1-yl)methyl)phenyl)(methyl)carbamate]",1 to 10
3,"Cc1cc2c(N)nccc2c(C)c1CNC(=O)c1cnn(Cc2ccc3cccc(Br)c3n2)c1 [Example 159, N-((1-amino-5,7-dimethylisoquinolin-6-yl)methyl)-1-((8-bromoquinolin-2-yl)methyl)-1H-pyrazole-4-carboxamide]",10 to 100
4,"Cc1cc2c(N)nccc2c(C)c1CNc1cc(CCc2ccc(Cn3cccn3)cc2)ncn1 [Example I-460, 6-((6-(4-((1H-pyrazol-1-yl)methyl)phenethyl)pyrimidin-4-ylamino)methyl)-5,7-dimethylisoquinolin-1-amine]",10 to 100
5,"Cc1cc2c(N)nccc2c(C)c1CNC(=O)c1cnn(Cc2ccc3cnccc3c2)c1 [Example 74, N-((1-amino-5,7-dimethylisoquinolin-6-yl)methyl)-1-(isoquinolin-6-ylmethyl)-1H-pyrazole-4-carboxamide]",1 to 10
6,"Cc1cc2c(N)nccc2c(C)c1CNc1cc(NCc2ccc(C3CC3)cc2)ncn1 [Example 339, N^4-((1-amino-5,7-dimethylisoquinolin-6-yl)methyl)-N^6-(4-cyclopropylbenzyl)pyrimidine-4,6-diamine]",10 to 100
7,"Cc1cc2c(N)nccc2c(C)c1CNc1cc(NCc2ccc(C(F)(F)n3cccn3)cc2)ncn1 [Example 382, N^4-((1-amino-5,7-dimethylisoquinolin-6-yl)methyl)-N^6-(4-(difluoro(1H-pyrazol-1-yl)methyl)benzyl)pyrimidine-4,6-diamine]",1 to 10
8,"COc1ccc2cc(Cn3cc(C(=O)NCc4c(C)cc5c(N)nccc5c4C)cn3)cnc2c1 [Example 110, N-((1-amino-5,7-dimethylisoquinolin-6-yl)methyl)-1-((7-methoxyquinolin-3-yl)methyl)-1H-pyrazole-4-carboxamide]",1 to 10
9,"Cc1cc2c(N)nccc2c(C)c1CNc1ncnc(NCc2ccc(Cn3cccn3)cc2)c1F [Example 234, N4-(4-((1H-pyrazol-1-yl)methyl)benzyl)-N6-((1-amino-5,7-dimethylisoquinolin-6-yl)methyl)-5-fluoropyrimidine-4,6-diamine]",10 to 100
10,"Cc1cc2c(N)nccc2c(C)c1CNc1ncnc2oc(Cc3ccc4ncc(Cl)cc4c3)nc12 [Example 538, N-((1-amino-5,7-dimethylisoquinolin-6-yl)methyl)-2-((3-chloroquinolin-6-yl)methyl)oxazolo[5,4-d]pyrimidin-7-amine]",10 to 100
11,"Cc1ccc(Cn2cc(C(=O)NCc3c(C)cc4c(N)nccc4c3C)cn2)cc1C(F)(F)F [Example 36, N-((1-amino-5,7-dimethylisoquinolin-6-yl)methyl)-1-(4-methyl-3-(trifluoromethyl)benzyl)-1H-pyrazole-4-carboxamide]",1 to 10
12,"CCOC(=O)C(C)(C)Cc1cc(C2CC2)cc2cc(COc3cc(NCc4c(C)cc5c(N)nccc5c4C)ncn3)nn12 [Example 396, ethyl 3-(2-(((6-(((1-amino-5,7-dimethylisoquinolin-6-yl)methyl)amino)pyrimidin-4-yl)oxy)methyl)-5-cyclopropylpyrazolo[1,5-a]pyridin-7-yl)-2,2-dimethylpropanoate]",1 to 10
13,"Cc1cc2c(N)nccc2c(C)c1CNc1cc(OC(C)c2ccc(Cn3cccn3)cc2)cnn1 (centres unmarked) [Example 275, 6-(((5-(1-(4-((1H-pyrazol-1-yl)methyl)phenyl)ethoxy)pyridazin-3-yl)amino)methyl)-5,7-dimethylisoquinolin-1-amine]",< 1
14,"Cc1cc2c(N)nccc2c(C)c1CNc1nccc2cn(Cc3nc4ccc(C5CC5)cn4n3)nc12 [Example 263, 6-(((2-((6-cyclopropyl-[1,2,4]triazolo[1,5-a]pyridin-2-yl)methyl)-2H-pyrazolo[3,4-c]pyridin-7-yl)amino)methyl)-5,7-dimethylisoquinolin-1-amine]",1 to 10
15,"CCc1cc2c(N)nccc2c(C)c1CNC(=O)c1cnn(Cc2ccccc2)c1 [Example 173, N-((1-amino-7-ethyl-5-methylisoquinolin-6-yl)methyl)-1-benzyl-1H-pyrazole-4-carboxamide]",10 to 100
16,"Cc1cc2c(N)nccc2c(C)c1CNC(=O)c1cnn(Cc2ccccc2F)c1 [Example 38, N-((1-amino-5,7-dimethylisoquinolin-6-yl)methyl)-1-(2-fluorobenzyl)-1H-pyrazole-4-carboxamide]",> 1000

row,Structure (SMILES),EC50 [nM]
1,"Cc1cc2c(Nc3cc(OCc4ccc5ncc(C6CC6)cc5c4)ccn3)nccc2c(C)c1CN [Example 238, 6-(aminomethyl)-N-(4-((3-cyclopropylquinolin-6-yl)methoxy)pyridin-2-yl)-5,7-dimethylisoquinolin-1-amine]",100 to 1000
2,"Cc1cc2c(N)nccc2c(C)c1CNc1cc(NCc2cc(C)c(OCC(=O)N(C)C)c(C)c2)ncn1 [Example 348, 2-(4-(((6-(((1-amino-5,7-dimethylisoquinolin-6-yl)methyl)amino)pyrimidin-4-yl)amino)methyl)-2,6-dimethylphenoxy)-N,N-dimethylacetamide]",1 to 10
3,"Cc1cc2c(N)nccc2c(C)c1CNC(=O)c1cnn(Cc2ccc(Cc3cccn4ccnc34)cc2)c1 [Example 167, N-((1-amino-5,7-dimethylisoquinolin-6-yl)methyl)-1-(4-(imidazo[1,2-a]pyridin-8-ylmethyl)benzyl)-1H-pyrazole-4-carboxamide]",< 1
4,"Cc1ccc2nc(CNc3cc(NCc4c(C)cc5c(N)nccc5c4C)ncn3)cn2c1 [Example 333, N^4-((1-amino-5,7-dimethylisoquinolin-6-yl)methyl)-N^6-((6-methylimidazo[1,2-a]pyridin-2-yl)methyl)pyrimidine-4,6-diamine]",< 1
5,"Cc1cc2c(N)nccc2c(C)c1CNc1cc(NCc2ccccc2)cnn1 [Example 448, N^3-((1-amino-5,7-dimethylisoquinolin-6-yl)methyl)-N5-benzylpyridazine-3,5-diamine]",100 to 1000
6,"Cc1cc2c(N)nccc2c(C)c1CNc1cc(OCc2ccc(Cc3ccn(C)n3)cc2)cnn1 [Example 439, 5,7-dimethyl-6-(((5-((4-((1-methyl-1H-pyrazol-3-yl)methyl)benzyl)oxy)pyridazin-3-yl)amino)methyl)isoquinolin-1-amine]",< 1
7,"Cc1cc2c(N)nccc2c(C)c1CNC(=O)c1cnn(Cc2cn3cc(Br)c(Cl)cc3n2)c1 [Example 149, N-((1-amino-5,7-dimethylisoquinolin-6-yl)methyl)-1-((6-bromo-7-chloroimidazo[1,2-a]pyridin-2-yl)methyl)-1H-pyrazole-4-carboxamide]",< 1
8,"Cc1cc2c(N)nccc2c(C)c1CNC(=O)c1cnn(Cc2ccc(N3CCCC3)nc2)c1C(F)(F)F [Example 193, N-((1-amino-5,7-dimethylisoquinolin-6-yl)methyl)-1-((6-(pyrrolidin-1-y1)pyridin-3-yl)methyl)-5-(trifluoromethyl)-1H-pyrazole-4-carboxamide]",100 to 1000
9,"COCc1c(C(=O)NCc2c(C)cc3c(N)nccc3c2C)cnn1Cc1ccc(Cn2cccn2)cc1 [Example 188, 1-(4-((1H-pyrazol-1-yl)methyl)benzyl)-N-((1-amino-5,7-dimethylisoquinolin-6-yl)methyl)-5-(methoxymethyl)-1H-pyrazole-4-carboxamide]",10 to 100
10,"Cc1cc2c(N)nccc2c(C)c1CNC(=O)c1cnn(Cc2cc3cc(F)ccc3o2)c1 [Example 57, N-((1-amino-5,7-dimethylisoquinolin-6-yl)methyl)-1-((5-fluorobenzofuran-2-yl)methyl)-1H-pyrazole-4-carboxamide]",10 to 100
11,"Cc1cc2c(N)nccc2c(C)c1CNC(=O)c1cnn(Cc2ccc(CC(=O)N3CCOCC3)cc2)c1 [Example 225, N-((1-amino-5,7-dimethylisoquinolin-6-y1)methyl)-1-(4-(2-morpholino-2-oxoethyl)benzyl)-1H-pyrazole-4-carboxamide]",1 to 10
12,"Cc1cc2c(N)nccc2c(C)c1CNc1cc(OCc2ccc(Cc3ccn(C)n3)cc2)ncn1 [Example 297, 5,7-dimethyl-6-(((6-((4-((1-methyl-1H-pyrazol-3-yl)methyl)benzyl)oxy)pyrimidin-4-yl)amino)methyl)isoquinolin-1-amine, formic acid salt]",1 to 10
13,"CCc1c(Cl)ccc2nc(Cn3cc(C(=O)NCc4c(C)cc5c(N)nccc5c4C)cn3)cn12 [Example 141, N-((1-amino-5,7-dimethylisoquinolin-6-yl)methyl)-1-((6-chloro-5-ethylimidazo[1,2-a]pyridin-2-yl)methyl)-1H-pyrazole-4-carboxamide]",< 1
14,"Cc1cc2c(N)nccc2c(C)c1CNc1cc(OCc2ccc3ccccc3c2)cnn1 [Example 252, 5,7-dimethyl-6-(((5-(naphthalen-2-ylmethoxy)pyridazin-3-yl)amino)methyl)isoquinolin-1-amine]",10 to 100
15,"Cc1cc2c(N)nccc2c(C)c1CNC(=O)c1cnn(Cc2ccc3cc(Cl)ccc3n2)c1 [Example 157, N-((1-amino-5,7-dimethylisoquinolin-6-yl)methyl)-1-((6-chloroquinolin-2-yl)methyl)-1H-pyrazole-4-carboxamide]",1 to 10
16,"Cc1cc2c(N)nccc2c(C)c1CNc1cc(NCc2ccc(Cc3cc[nH]n3)cc2)ncn1 [Example 358, N^4-(4-((1H-pyrazol-3-yl)methyl)benzyl)-N^6-((1-amino-5,7-dimethylisoquinolin-6-yl)methyl)pyrimidine-4,6-diamine]",1 to 10
